≈ marks a conversion by molar mass, not a printed value.
Assays:
[1] = system: Human immunodeficiency virus 1; format: functional, organism-based; settings: Human immunodeficiency virus 1, MT4
[2] = Toxicity in mock-infected human MT4 cells assessed as reduction in cell viability by MTT assay; format: cell-based
[3] = system: Human immunodeficiency virus 1; assay: Antiviral activity against HIV1 with RT L100I mutant infected in human MT4 cells assessed as protection against viral-induced cytopathogenecity by MTT assay; format: functional, organism-based; settings: Human immunodeficiency virus 1, MT4
[4] = system: Human immunodeficiency virus 1; assay: Antiviral activity against HIV1 with RT K103N mutant infected in human MT4 cells assessed as protection against viral-induced cytopathogenecity by MTT assay; format: functional, organism-based; settings: Human immunodeficiency virus 1, MT4
[5] = system: Human immunodeficiency virus 1; format: functional, organism-based; settings: Human immunodeficiency virus 1, MT4; remark: listed apart in the source
[6] = system: Human immunodeficiency virus 1; format: functional, organism-based; settings: Human immunodeficiency virus 1, MT4; remark: listed apart in the source
[7] = system: Human immunodeficiency virus 1; assay: Antiviral activity against HIV1 with RT E138K mutant infected in human MT4 cells assessed as protection against viral-induced cytopathogenecity by MTT assay; format: functional, organism-based; settings: Human immunodeficiency virus 1, MT4
[8] = system: Human immunodeficiency virus 1; assay: Antiviral activity against HIV1 with RT RES056 mutant infected in human MT4 cells assessed as protection against viral-induced cytopathogenecity by MTT assay; format: functional, organism-based; settings: Human immunodeficiency virus 1, MT4
[9] = in vitro; settings: human, MT4 cells, mock-infected (CC50) and HIV1 3B infected (EC50)
Description: Selectivity index, ratio of CC50 for toxicity in mock-infected human MT4 cells assessed as reduction in cell viability by MTT assay to EC50 for antiviral activity against HIV1 3B infected in human MT4 cells assessed as protection against viral-induced cytopathogenecity by MTT assay

[10] = system: Human immunodeficiency virus 1; assay: microbe, parasite or virus in culture; settings: Human immunodeficiency virus 1, 3B, MT4
Description: Antiviral activity against HIV1 3B infected in human MT4 cells assessed as protection against viral-induced cytopathogenecity by MTT assay

[11] = molecular target: Human immunodeficiency virus type 1 reverse transcriptase (Human immunodeficiency virus 1, UniProt Q72547); assay: Inhibition of HIV1 reverse transcriptase assessed as inhibition of biotin-dUTP incorporation
[12] = Solubility in water at pH 7.4; format: physicochemical
[13] = Solubility in water at pH 7; format: physicochemical
[14] = Solubility in water at pH 2; format: physicochemical

Structure (SMILES)	EC50 [1]	CC50 [2]	EC50 [3]	EC50 [4]	EC50 [5]	EC50 [6]	EC50 [7]	EC50 [8]	selectivity ratio [9]	EC50 [10]	IC50 [11]	solubility [12]	solubility [13]	solubility [14]
Cc1cc(C)cc(S(=O)(=O)c2c(C(=O)Nc3cccc(B(O)O)c3)[nH]c3ccc(Cl)cc23)c1	0.2 µM	5.31 µM	87.5 nM	100 nM	850 nM	> 5.3 µM	67.6 nM	> 5.3 µM	282	18.9 nM				
Nc1ccn([C@@H]2CS[C@H](CO)O2)c(=O)n1 [LAMIVUDINE]	2.17 µM	> 87.2 µM	1150 nM	2790 nM	3400 nM	4.56 µM	8270 nM	5.06 µM	> 309	5230 nM				
Cc1cc(C)cc(S(=O)(=O)c2c(C(=O)NCCNC(=O)c3cccc(B(O)O)c3)[nH]c3ccc(Cl)cc23)c1	0.98 µM	21.1 µM	260 nM	570 nM	1340 nM	8.1 µM	243 nM	> 21.1 µM	517	40.8 nM				
Cc1cc(C)cc(S(=O)(=O)c2c(C(=O)NCc3cccc(B(O)O)c3)[nH]c3ccc(Cl)cc23)c1	0.021 µM	28 µM	7.3 nM	9.2 nM	60 nM	0.89 µM	50.3 nM	1.51 µM	3310	8.5 nM	124 nM	94.5 µg/mL (≈ 190 µM)	70 µg/mL (≈ 141 µM)	64 µg/mL (≈ 129 µM)
Cc1cc(C)cc(S(=O)(=O)c2c(C(=O)NCCCNC(=O)c3ccc(B(O)O)cc3)[nH]c3ccc(Cl)cc23)c1	0.118 µM	24.7 µM	21 nM	33 nM	190 nM	2.23 µM	34.2 nM	4.91 µM	2240	11.1 nM				
Cc1cc(C)cc(S(=O)(=O)c2c(C(=O)NCc3ccc(B4OC(C)(C)C(C)(C)O4)cc3)[nH]c3ccc(Cl)cc23)c1	0.091 µM	23.9 µM	14 nM	35 nM	69.9 nM	2.59 µM	45 nM	4.04 µM	3550	6.7 nM	119 nM	37.7 µg/mL (≈ 65.1 µM)	35.8 µg/mL (≈ 61.8 µM)	73 µg/mL (≈ 126 µM)
O=C1Nc2ccc(Cl)cc2[C@@](C#CC2CC2)(C(F)(F)F)O1 [EFAVIRENZ]		> 6.34 µM			6.3 nM	0.21 µM	6.6 nM	0.33 µM						
Cc1cc(C)cc(S(=O)(=O)c2c(C(=O)NCCNC(=O)c3ccc(B(O)O)cc3)[nH]c3ccc(Cl)cc23)c1	0.7 µM	24.4 µM	230 nM	260 nM	910 nM	6.76 µM	162 nM	> 24.3 µM	1230	19.8 nM				
Cc1cc(C#N)cc(C)c1Oc1nc(Nc2ccc(C#N)cc2)nc(N)c1Br [ETRAVIRINE]	0.02 µM	> 4.59 µM	7.6 nM				19 nM	0.066 µM		2.9 nM		< 1 µg/mL	< 2 µg/mL	< 3 µg/mL
Cc1cc(C)cc(S(=O)(=O)c2c(C(=O)Nc3ccc4c(c3)B(O)OC4)[nH]c3ccc(Cl)cc23)c1	0.19 µM	8.42 µM	96 nM	110 nM	470 nM	> 1.96 µM	64.9 nM	> 8.41 µM	457	18.4 nM				
Cc1ccnc2c1NC(=O)c1cccnc1N2C1CC1 [NEVIRAPINE]	> 1500 µM	> 15 µM			11000 nM	> 1500 µM		> 1500 µM		160 nM				
Cc1cc(C)cc(S(=O)(=O)c2c(C(=O)NC3CCN(Cc4cccc(B(O)O)c4)CC3)[nH]c3ccc(Cl)cc23)c1	> 1.19 µM	6.43 µM	280 nM	510 nM	1190 nM	> 6.43 µM	717 nM	> 6.43 µM	151	42.6 nM				
Cc1cc(C)cc(S(=O)(=O)c2c(C(=O)NCc3ccc(B(O)O)cc3)[nH]c3ccc(Cl)cc23)c1	0.115 µM	27.7 µM	9.4 nM	32 nM	120 nM	3.86 µM	53.7 nM	4.64 µM	3140	8.8 nM				
Cc1cc(C)cc(S(=O)(=O)c2c(C(=O)Nc3ccc(B(O)O)cc3)[nH]c3ccc(Cl)cc23)c1	0.0795 µM	8.55 µM	37 nM	41 nM	216 nM	> 1.62 µM	39.8 nM	> 856 µM	712	12 nM				
Cc1cc(C)cc(S(=O)(=O)c2c(C(=O)NC3CCN(Cc4ccc(B(O)O)cc4)CC3)[nH]c3ccc(Cl)cc23)c1	1.31 µM	19.3 µM	110 nM	310 nM	1070 nM	> 19.3 µM	646 nM	> 19.3 µM	615	31.4 nM				
Cc1cc(C)cc(S(=O)(=O)c2c(C(N)=O)[nH]c3ccc(Cl)cc23)c1	0.08 µM	7.08 µM	10 nM	20 nM	30 nM	1.17 µM	10 nM	> 7.08 µM	2570	2.8 nM	4.8 nM	29 µg/mL (≈ 79.9 µM)	58.3 µg/mL (≈ 161 µM)	71.2 µg/mL (≈ 196 µM)
Cc1cc(C)cc(S(=O)(=O)c2c(C(=O)NCCCNC(=O)c3cccc(B(O)O)c3)[nH]c3ccc(Cl)cc23)c1	0.22 µM	24.2 µM	110 nM	130 nM	270 nM	1.82 µM	84.4 nM	5.4 µM	684	35.4 nM				
Cc1cn([C@H]2C[C@H](N=[N+]=[N-])[C@@H](CO)O2)c(=O)[nH]c1=O [ZIDOVUDINE]	0.0097 µM	> 7.48 µM	9.3 nM	22 nM	15 nM	0.012 µM	34.7 nM		> 352	21.2 nM				

From ChEMBL document CHEMBL5143545, “Indolylarylsulfones bearing phenylboronic acid and phenylboronate ester functionalities as potent HIV‑1 non-nucleoside reverse transcriptase inhibitors” (Bioorg Med Chem, 2022)
